The values below come from patent US20030219400A1 (priority 2002, published 2003).

For one data set, the system named is PLDS patients. In kind it is in vivo, human. On the procedure:
An orally administered checklist monitored symptoms; sequential VCS testing was performed. […] No antibiotics or other therapeutic interventions were administered during the study. Diagnostic parameters used by referring physicians included a history of erythema chronicum migrans (ECM) rash, ELISA assay, Borrelia burgdorferi Western blot, LUAT assay, PCR, CSF antibodies to B. burgdorferi and culture. Patients with a clinical diagnosis of PLDS but without a positive serologic test were included at the discretion of the attending physician.

The test system of data set [1] is macrophage release of pro-inflammatory cytokines, including TNF and IL1B. To be noted: intraventricular instillation; cited from earlier work.
Another data set has as its system SBS patients. To be noted: human, in vivo.

Take `CCc1ccc(CCOc2ccc(CC3SC(=O)NC3=O)cc2)nc1` (stereo not shown) [pioglitazone]: the “adverse effects from pioglitazone, including hypoglycemia or abnormal liver function tests” value with PLDS patients (45 mg daily for 10 days) is “No patients had adverse effects”. The “patients with significant intensification of symptoms, not severe enough to stop treatment” value in the data set with PLDS patients (of 241 patients receiving pioglitazone, CSM added on day 6) was found to be 5 patients.
Take “Ser-Tyr-Ser-Met-Glu-His-Phe-Arg-Trp-Gly-Lys-Pro-Val [αMSH]”: in data set [1], the “macrophage release of pro-inflammatory cytokines, including TNF and IL1B” value is “down-regulation of macrophage release of pro-inflammatory cytokines”.
Regarding cholestyramine [CSM], in the data set with SBS patients, the “other complications of therapy” value was “No other significant complications of therapy were noted”.
